Measured values from ChEMBL document CHEMBL5338768, “Discovery of PMSA Derivative 11 as a Novel Lead Compound for Therapeutic Treatment of Osteoporosis In Vitro and In Vivo” (J Med Chem, 2023).
Active and inactive are the calls of the source. No cut-off for these calls is given here.

What was measured:
Osteoclast [1] = experiment: Anti-osteoclastogenesis in RANKL induced C57/BL6 mouse osteoclast assessed as formation of mature osteoclast measured at 1 uM by TRAP-staining based microscopic analysis relative to control; type: functional
[2] = target: T1, Nuclear factor of activated T-cells, cytoplasmic 1 (Mus musculus) (UniProt O88942); experiment: Inhibition of pronase mediated NFATc1 degradation in mouse osteogenic differentiated BMDM multi nuclear mature osteoclast at 50 uM for 1 hr by drug affinity responsive target stability analysis; type: cell-based
T1 sequence (whole entry): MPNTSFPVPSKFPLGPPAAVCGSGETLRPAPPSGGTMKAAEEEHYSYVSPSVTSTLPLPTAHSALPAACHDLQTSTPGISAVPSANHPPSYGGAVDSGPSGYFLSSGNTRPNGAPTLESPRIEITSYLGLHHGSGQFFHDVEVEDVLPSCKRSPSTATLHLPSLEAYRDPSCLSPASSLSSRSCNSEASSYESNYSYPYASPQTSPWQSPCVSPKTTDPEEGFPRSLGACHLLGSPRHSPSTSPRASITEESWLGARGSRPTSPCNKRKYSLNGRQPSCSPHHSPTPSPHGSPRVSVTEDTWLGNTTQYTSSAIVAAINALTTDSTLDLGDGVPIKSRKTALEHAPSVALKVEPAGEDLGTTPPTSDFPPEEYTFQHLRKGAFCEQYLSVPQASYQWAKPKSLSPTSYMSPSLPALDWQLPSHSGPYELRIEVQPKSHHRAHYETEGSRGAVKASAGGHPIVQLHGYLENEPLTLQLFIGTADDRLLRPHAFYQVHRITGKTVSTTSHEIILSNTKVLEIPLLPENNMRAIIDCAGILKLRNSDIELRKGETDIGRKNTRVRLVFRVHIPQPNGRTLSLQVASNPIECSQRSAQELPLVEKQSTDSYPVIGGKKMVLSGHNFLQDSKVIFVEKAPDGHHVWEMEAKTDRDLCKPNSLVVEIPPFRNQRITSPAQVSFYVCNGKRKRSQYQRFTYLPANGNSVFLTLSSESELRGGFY

Osteoclast [3] = experiment: Anti-osteoclastogenesis in RANKL induced C57/BL6 mouse osteoclast assessed as inhibition of differentiation of bone marrow derived macrophage measured by TRAP-staining based microscopic analysis; type: functional, cell-based
BMDM [4] = experiment: Cytotoxicity in RANKL induced C57/BL6 mouse BMDM incubated at <4 uM for 48 hrs; type: functional, cell-based
BMDM [5] = experiment: Cytotoxicity in RANKL induced C57/BL6 mouse mouse osteogenic differentiated BMDM assessed as blocking of formation of multinucleated mature osteoclast incubated at 4 uM for 48 hrs; type: functional, cell-based
Osteoclast [6] = experiment: Anti-osteoclastogenesis in RANKL induced C57/BL6 mouse osteoclast assessed as blocking of formation of multinucleated mature osteoclast incubated for 48 hrs; type: functional, cell-based; conditions: dose 62.5-4000 nM
BMDM [7] = experiment: Anti-osteoclastogenesis in RANKL/M-CSF induced C57/BL6 mouse osteogenic differentiated BMDM assessed as repression of F-actin ring at 500 to 2000 nM spectra max i3x fluorescence plate reader based microscopic analysis; type: functional, cell-based; conditions: dose 500-2000 nM
BMDM [8] = experiment: Anti-osteoclastogenesis in RANKL/M-CSF induced C57/BL6 mouse osteogenic differentiated BMDM assessed as decrease in pit area at 0.5 to 2 uM for 6 days by measuring fluorescence intensity using fluorescein amine labelled calcium plate method; type: functional, cell-based; conditions: dose 0.5-2 µM, time 6.0 day
Calvarial osteoblast = experiment: Effect on osteogenesis in BMP2 stimulated mouse osteogenic differentiated calvaria primary osteoblast assessed as chane in percentage of ALP positive density at 0.125 to 16 uM with replacement of compound containing media daily for 9 days by ALP staining analysis; type: functional, cell-based; conditions: dose 0.125-16 µM, time 9.0 day
BMDM [9] = experiment: Anti-osteoclastogenesis in RANKL/M-CSF induced C57/BL6 mouse osteogenic differentiated BMDM assessed as suppression of mRNA level of osteoclastogenesis related Dc-stamp gene expression measured for 0 to 4 days by qRT-PCR analysis; type: functional, cell-based; conditions: time 0-4 day
BMDM [10] = experiment: Anti-osteoclastogenesis in RANKL/M-CSF induced C57/BL6 mouse osteogenic differentiated BMDM assessed as suppression of mRNA level of osteoclastogenesis related Acp5 gene expression measured for 0 to 4 days by qRT-PCR analysis; type: functional, cell-based; conditions: time 0-4 day
BMDM [11] = experiment: Anti-osteoclastogenesis in RANKL/M-CSF induced C57/BL6 mouse osteogenic differentiated BMDM assessed as suppression of mRNA level of osteoclastogenesis related Nfatc1 gene expression measured for 0 to 4 days by qRT-PCR analysis; type: functional, cell-based; conditions: time 0-4 day
BMDM [12] = experiment: Anti-osteoclastogenesis in RANKL/M-CSF induced C57/BL6 mouse osteogenic differentiated BMDM assessed as suppression of mRNA level of osteoclastogenesis related Atp6v0d2 gene expression measured for 0 to 4 days by qRT-PCR analysis; type: functional, cell-based; conditions: time 0-4 day
BMDM [13] = experiment: Anti-osteoclastogenesis in RANKL/M-CSF induced C57/BL6 mouse osteogenic differentiated BMDM assessed as suppression of mRNA level of osteoclastogenesis related Mmp9 gene expression measured for 0 to 4 days by qRT-PCR analysis; type: functional, cell-based; conditions: time 0-4 day
BMDM [14] = experiment: Anti-osteoclastogenesis in RANKL/M-CSF induced C57/BL6 mouse osteogenic differentiated BMDM assessed as suppression of mRNA level of osteoclastogenesis related Ctsk-gene expression measured for 0 to 4 days by qRT-PCR analysis; type: functional, cell-based; conditions: time 0-4 day
BMDM [15] = experiment: Anti-osteoclastogenesis in RANKL induced C57/BL6 mouse osteogenic differentiated BMDM assessed as inhibition of TRAF6 protein expression measured at 1 uM for 0 to 4 days by Western blotting analysis; type: functional, cell-based; conditions: time 0-4 day
BMDM [16] = experiment: Anti-osteoclastogenesis in RANKL induced C57/BL6 mouse osteogenic differentiated BMDM assessed as inhibition of c-src protein expression measured at 1 uM for 0 to 4 days by Western blotting analysis; type: functional, cell-based; conditions: time 0-4 day
BMDM [17] = experiment: Anti-osteoclastogenesis in RANKL induced C57/BL6 mouse osteogenic differentiated BMDM assessed as inhibition of N-FkappaB protein expression measured at 1 uM for 0 to 4 days by Western blotting analysis; type: functional, cell-based; conditions: time 0-4 day
BMDM [18] = experiment: Anti-osteoclastogenesis in RANKL induced C57/BL6 mouse osteogenic differentiated BMDM assessed as inhibition of c-fos protein expression measured at 1 uM for 0 to 4 days by Western blotting analysis; type: functional, cell-based; conditions: time 0-4 day
BMDM [19] = experiment: Anti-osteoclastogenesis in RANKL induced C57/BL6 mouse osteogenic differentiated BMDM assessed as inhibition of NFATc1 protein expression measured at 1 uM for 0 to 4 days by Western blotting analysis; type: functional, cell-based; conditions: time 0-4 day
BMDM [20] = experiment: Anti-osteoclastogenesis in RANKL induced C57/BL6 mouse osteogenic differentiated BMDM assessed as inhibition of protease Ctsk-protein expression measured at 1 uM for 0 to 4 days by Western blotting analysis; type: functional, cell-based; conditions: time 0-4 day
BMDM [21] = experiment: Anti-osteoclastogenesis in RANKL induced C57/BL6 mouse osteogenic differentiated BMDM assessed as increased NAFTc1 protein level in cytoplasm measured for 48 hrs by Western blotting analysis; type: functional, cell-based
BMDM [22] = experiment: Anti-osteoclastogenesis in RANKL induced C57/BL6 mouse osteogenic differentiated BMDM assessed as decreased NAFTc1 protein level in nucleus measured for 48 hrs by Western blotting analysis; type: functional, cell-based
BMDM [23] = experiment: Anti-osteoclastogenesis in RANKL/M-CSF induced C57/BL6 mouse osteogenic differentiated BMDM assessed as expression of calcineurin A in NAFTc1 translocation by immunofluorescence microscopy; type: functional, cell-based
BMDM [24] = experiment: Anti-osteoclastogenesis in RANKL/M-CSF induced C57/BL6 mouse osteogenic differentiated BMDM assessed as expression of GSK3beta in NAFTc1 translocation by immunofluorescence microscopy; type: functional, cell-based
BMDM [25] = experiment: Anti-osteoclastogenesis in RANKL/M-CSF induced C57/BL6 mouse osteogenic differentiated BMDM assessed as expression of CRM1 in NAFTc1 translocation by immunofluorescence microscopy; type: functional, cell-based
BMDM [26] = experiment: Anti-osteoclastogenesis in RANKL/M-CSF induced C57/BL6 mouse osteogenic differentiated BMDM assessed as expression of GAPDH in NAFTc1 translocation by immunofluorescence microscopy; type: functional, cell-based
Osteoclast [27] = experiment: Anti-osteoclastogenesis in human RANKL/human M-CSF induced human iPSC-derived macrophage assessed as inhibition of mature osteoclast differentiation measured for 10 days by TRAP staining assay; type: functional, cell-based; conditions: time 10.0 day
[28] = Toxicity in OVX induced osteoporosis C57BL/6 mouse model assessed as reduction of body weight at 20 mg/kg, ip daily for 4 weeks measured every week; type: organism-based; conditions: in vivo, 672 h
Mus musculus = experiment: Anti-osteoporosis activity in OVX induced osteoporosis C57BL/6 mouse model assessed as prevention of bone loss in femur at 20 mg/kg, ip daily for 4 weeks by micro computed tomographic analysis; type: functional, organism-based
BMDM [29] = experiment: Anti-osteoclastogenesis in RANKL/M-CSF induced C57/BL6 mouse osteogenic differentiated BMDM assessed as repression of F-actin ring at 10 uM spectra max i3x fluorescence plate reader based microscopic analysis; type: functional, cell-based
BMDM [30] = experiment: Anti-osteoclastogenesis in RANKL/M-CSF induced C57/BL6 mouse osteogenic differentiated BMDM assessed as decrease in pit area at 10 uM for 6 days by measuring fluorescence intensity using fluorescein amine labelled calcium plate method; type: functional, cell-based; conditions: time 6.0 day

CS(=O)(=O)N(CC(=O)Nc1ccccc1Sc1ccccc1)c1cccc(Cl)c1
inhibition at 1 µM (Osteoclast [1]): 16.2%

O=C(CNc1cccc(C(=O)Oc2ccc(Cl)cc2)c1)Nc1ccccc1Sc1ccccc1
inhibition at 1 µM (Osteoclast [1]): 43.2%

COc1ccc(OC(=O)c2cccc(N(CC(=O)Nc3ccccc3Sc3ccccc3)S(C)(=O)=O)c2)cc1
inhibition at 1 µM (Osteoclast [1]): 25.7%

COc1ccccc1OC(=O)c1cccc(NCC(=O)Nc2ccccc2Sc2ccccc2)c1
inhibition at 1 µM (Osteoclast [1]): 52.3%

CS(=O)(=O)N(CC(=O)Nc1ccccc1Sc1ccccc1)c1cccc(C(=O)Oc2cccc([N+](=O)[O-])c2)c1
inhibition at 1 µM (Osteoclast [1]): 4.74%

COC(=O)c1cccc(NCC(=O)Nc2ccccc2Sc2ccccc2)c1
inhibition [2]: Active
inhibition at 1 µM (Osteoclast [1]): 74.5%
IC50 (Osteoclast [3]): 323 nM
Activity (BMDM [4]): inactive
Activity (BMDM [5]): Active
Activity (Osteoclast [6]): Dose-Dependent Effect
Activity (BMDM [7]): Active
Activity (BMDM [8]): Dose-Dependent Effect
Activity (Calvarial osteoblast): inactive
Activity (BMDM [9]): Active
Activity (BMDM [10]): Active
Activity (BMDM [11]): Active
Activity (BMDM [12]): Active
Activity (BMDM [13]): Active
Activity (BMDM [14]): Active
Activity (BMDM [15]): inactive
Activity (BMDM [16]): inactive
Activity (BMDM [17]): inactive
Activity (BMDM [18]): inactive
Activity (BMDM [19]): inactive
Activity (BMDM [20]): Active
Activity (BMDM [21]): Active
Activity (BMDM [22]): Active
Activity (BMDM [23]): inactive
Activity (BMDM [24]): inactive
Activity (BMDM [25]): inactive
Activity (BMDM [26]): inactive
Activity (Osteoclast [27]): Active
Activity [28]: Non-Toxic
Activity (Mus musculus): Active

Cc1ccccc1OC(=O)c1cccc(N(CC(=O)Nc2ccccc2Sc2ccccc2)S(C)(=O)=O)c1
inhibition at 1 µM (Osteoclast [1]): 15.3%

COC(=O)c1cccc(N(CC(=O)Nc2ccccc2Sc2ccccc2)S(C)(=O)=O)c1
inhibition at 1 µM (Osteoclast [1]): 8.13%

NCCCC(O)(P(=O)(O)O)P(=O)(O)O [ALENDRONIC ACID]
inhibition at 1 µM (Osteoclast [1]): 30.9%

COc1ccccc1OC(=O)c1cccc(N(CC(=O)Nc2ccccc2Sc2ccccc2)S(C)(=O)=O)c1
inhibition at 1 µM (Osteoclast [1]): 20.3%

CS(=O)(=O)N(CC(=O)Nc1ccccc1Sc1ccccc1)c1cccc(C(=O)O)c1
inhibition at 1 µM (Osteoclast [1]): 0.11%

Cc1ccc(OC(=O)c2cccc(N(CC(=O)Nc3ccccc3Sc3ccccc3)S(C)(=O)=O)c2)cc1
inhibition at 1 µM (Osteoclast [1]): 14.2%

Cc1cccc(OC(=O)c2cccc(N(CC(=O)Nc3ccccc3Sc3ccccc3)S(C)(=O)=O)c2)c1
inhibition at 1 µM (Osteoclast [1]): 19%

CC(=O)c1cccc(N(CC(=O)Nc2ccccc2Sc2ccccc2)S(C)(=O)=O)c1
inhibition at 1 µM (Osteoclast [1]): 6.09%
Activity (BMDM [29]): Active
Activity (BMDM [30]): Active
Activity (Mus musculus): inactive

CS(=O)(=O)N(CC(=O)Nc1ccccc1Sc1ccccc1)c1cccc(C(=O)Oc2ccccc2C#N)c1
inhibition at 1 µM (Osteoclast [1]): 11.1%

CS(=O)(=O)N(CC(=O)Nc1ccccc1Sc1ccccc1)c1cccc(C(=O)Oc2ccc3ccccc3c2)c1
inhibition at 1 µM (Osteoclast [1]): 11.3%

CS(=O)(=O)N(CC(=O)Nc1ccccc1Sc1ccccc1)c1cccc(C(=O)Oc2cccc3ccccc23)c1
inhibition at 1 µM (Osteoclast [1]): 9.03%

CS(=O)(=O)N(CC(=O)Nc1ccccc1Sc1ccccc1)c1cccc(C(=O)Oc2ccc(Cl)cc2)c1
inhibition at 1 µM (Osteoclast [1]): 23.9%

CS(=O)(=O)N(CC(=O)Nc1ccccc1Sc1ccccc1)c1cccc(C(=O)Oc2ccc([N+](=O)[O-])cc2)c1
inhibition at 1 µM (Osteoclast [1]): 15.3%

CC(C)(C)c1ccc(OC(=O)c2cccc(N(CC(=O)Nc3ccccc3Sc3ccccc3)S(C)(=O)=O)c2)cc1
inhibition at 1 µM (Osteoclast [1]): 4.07%

COc1ccc(OC(=O)c2cccc(NCC(=O)Nc3ccccc3Sc3ccccc3)c2)cc1
inhibition at 1 µM (Osteoclast [1]): 50.9%
